Measurements taken from patent US20220267801A1, “ELIMINATION OF PROLIFERATING CELLS FROM STEM CELL-DERIVED GRAFTS” (Research Development Foundation, priority 2016, published 2022).
Entries after “also recorded” stand apart in the source; their conditions may differ.

Legend:
[1] = test system: TK-PSC (HS415 pluripotent stem cells expressing HSV-TK under Ki67 promoter); test: Calcein cell viability assay, ganciclovir on TK-PSC; type: cell-based, human
Protocol: (§1) The impact of ganciclovir on TK cells was determined in vitro (FIG. 2B, 2C, 2D). TK PSCs were highly sensitive to ganciclovir exposure (96 h) and even at ganciclovir concentrations of 2.5 μM loss of cells was observed, which was almost complete at 10 μM (FIG. 2B, 2C). In contrast, regular PSCs (i.e., not transduced with the TK construct) were resistant to ganciclovir even at concentrations of 40 μM (FIG. 2B, 2F). As expected from the lack of TK expression in TK neurons, TK neurons were not affected by ganciclovir concentrations up to 40 μM, similar to the control neurons.
(§2) The time course of the ganciclovir effect was also investigated (FIG. 2D). TK PSCs were killed by Ganciclovir (40 μM) within 4 days. TK-NPCs after 1 week of neurosphere differentiation were still sensitive to Ganciclovir (40 μM), however the time course of killing was markedly slowed down and complete killing was observed only after 8 days.
(§3) Cell proliferation measurement by calcein assay: Cells were plated onto a 96 wells pre-coated with polyornothine+ECM (1/50). Respectively 1000 cells for pluripotent stem cells, 5000 cells for early NPC and 30000 cells for late NPC. Ganciclovir (Cemevene diluted in PBS, Roche) treatment was added the day after cell plating for PSC, 3 days later for early NPC and one week later for late NPC. Calcein (2 μM) was added for different time course of ganciclovir treatment (24 H to 96 H). Cell survival was measured by calcein integration after 24 h of incubation in a 37° C. incubator.

[2] = test system: regular PSCs (not transduced with the TK construct); test: Calcein cell viability assay, ganciclovir on control PSC; type: cell-based, human; settings: concentrations up to 40 μM
Protocol: as §1, §3

[3] = test system: TK neurons; test: Calcein cell viability assay, ganciclovir on TK-neurons; type: cell-based, human; settings: concentrations up to 40 μM
Protocol: as §1
(§4) Generation of NPC in two dimensional culture (2D): For differentiation in 2D, 3-week old neurospheres were dissociated with ACCUMAX® (Millipore) and replated on polyornithine- (15 μg/mL; Sigma) and laminin- (2 μg/cm^2; R&D System) coated cover slips (diameter=0.8cm) in 24-well plates at 200,000 cells/cm^2 in maturation medium for 1 week before analysis by immunofluorescence staining (FIG. 1B).
(§5) Cell proliferation measurement by calcein assay: Cells were plated onto a 96 wells pre-coated with polyornothine+ECM (1/50). Respectively 1000 cells for pluripotent stem cells, 5000 cells for early NPC and 30000 cells for late NPC. […] Cell survival was measured by calcein integration after 24 h of incubation in a 37° C. incubator.

[4] = test system: control neurons; test: Calcein cell viability assay, ganciclovir on control neurons; type: cell-based, human; settings: concentrations up to 40 μM
Protocol: as §1, §4, §5

[5] = test system: TK-NPCs (neurosphere-derived neural precursor cells); test: Calcein cell viability assay, ganciclovir time course on TK-NPC; type: cell-based, human; settings: 40 μM ganciclovir
Protocol: as §2
Generation of neurospheres containing DA neuropecursors: NPC were generated as neurospheres to contain DA progenitors as described previously (Tieng et al., 2014). Briefly, neural midbrain orientation is performed during the first week followed by 2 additional weeks of maturation to obtain 1 week or 2 or 3 week-old NPC (FIGS. 1B, 3A).
as §3

[6] = test system: teratoma from transplanted TK-PSC; test: TK-PSC transplantation into striatum of NOD/SCID mice, ganciclovir treatment, teratoma formation; type: in vivo
Protocol: (§6) FIGS. 3A-3C: Schedule of cell transplantation and ganciclovir treatment. Different transplantation and ganciclovir treatment protocols were used. (A) Schematic representation of the differentiation protocol towards DA neurons. Pluripotent stem cells were cultured as neurospheres for 1 week for midbrain orientation phase, followed by a 2 or 3 week-maturation phase. (B) Transplantation of undifferentiated pluripotent stem cells with early or late ganciclovir treatment. Early treatment: undifferentiated pluripotent stem cells were transplanted and ganciclovir (or PBS control) was applied by daily intra-peritoneal injection from day 4 to day 19 post-transplantation. Late treatment: undifferentiated pluripotent stem cells were transplanted and ganciclovir (or PBS control) was applied by daily intra-peritoneal injection from day 30 to day 45 post-transplantation. (C) Transplantation of 2 or 3 week NPC: NPC containing- neurospheres were dissociated and transplanted into mice striatum. Ganciclovir (or PBS control) treatment was given from day 4 to day 19 post-transplantation. For all protocols, animals were sacrificed 1 month after termination of ganciclovir treatment.
Early, but not late ganciclovir treatment prevents tumor formation upon transplantation of highly proliferative pluripotent stem cells: Given the encouraging results in vitro, it was investigated whether ganciclovir could prevent tumor formation in vivo. For this purpose TK-PSC were transplanted into the striatum of NOD/SCID mice. […] There was a moderate amount of mouse microglia invasion.
It was next investigated whether ganciclovir could also be used to treat already established teratomas. […] Mice were sacrificed 30 days after the end of the ganciclovir treatment.
Stereotaxic engraftment and ganciclovir treatment: Undifferentiated pluripotent stem cells (20000 cells/ μL) and dissociated neurospheres (100.000 cells/μL) were injected in the striatum of anesthetized mice using a 27-G Hamilton syringe. Injection coordinates for lateral striatum were: bregma=0.74 mm, mediolateral=2.25 mm, dorsoventral=3.5 mm; for medial striatum: bregma=0.74 mm, mediolateral=1.4 mm, dorsoventral=2.8 mm. Mice were euthanized one month later after ganciclovir termination.
Morphological and Phenotypic Analysis of Injected Surviving Cells: Anesthetized mice were fixed by intracardiac perfusion of 4% paraformaldehyde in phosphate-buffered saline. Immunohistochemical detection was performed on 10-μm thick free-floating cryostat sections using Alexa 488®-, or 555-labeled secondary antibodies or the biotin—avidin—peroxidase complex method (Vector). The following primary antibodies were used: Nestin (rabbit polyclonal anti-human, from Chemicon, 1/400), β3-tubulin (mouse monoclonal from Sigma or rabbit polyclonal from Covance, 1/2000), Neuronal Nuclei-specific protein (NeuN, mouse monoclonal from Chemicon, 1/1000), Glial Fibrillary Acidic Protein (GFAP, rabbit polyclonal from Dako, 1/2000), Proliferating Cell Nuclear Antigen (PCNA, mouse monoclonal from Dako, 1/100), Tyrosin Hydroxylase (TH, rabbit polyclonal from millipore, 1/500), iba 1 (polyclonal rabbit from Wako, 1/500), HSV-TK (mouse monoclonal, Gentaur, 1/100), ki67 (monoclonal rabbit, Abcam, 1/100 or mouse, Chemicon, 1/100).

[7] = test system: transplanted TK-NPC graft; test: Transplantation of 2-3 week NPC neurospheres into mouse striatum, ganciclovir treatment; type: in vivo, mice
Protocol: as §6
Transplantation of TK-NPCs produced mature neurons which were not sensitive to ganciclovir treatment: The in vivo results, shown so far, were obtained with transplantation of undifferentiated pluripotent stem cells. However, the final goal of neuronal cell therapy is the transplantation of neural precursor cells, which should differentiate into mature neurons and be resistant to ganciclovir treatment. Therefore, 2-3 weeks-NPC containing neurospheres were transplanted (FIGS. 3C, 8). Under these conditions, no tumor formation was observed, even in the absence of ganciclovir treatment (FIG. 8A). In line with these observations, the transplanted cells (assessed by immunofluorescence 7 weeks after transplantation) were abundantly positive for beta 3 tubulin (FIG. 8B, upper panel), while a smaller fraction of cells was TH-positive (FIG. 8B, lower panel). Occasionally nestin-positive cells were observed.
Markers of cellular proliferation were analyzed by staining of the transplants with antibodies against PCNA and Ki67 (FIG. 8C). […] To verify whether the PCNA-positive, Ki67-negative cells were proliferating cells, BrdU experiments were performed.
Stereotaxic engraftment and ganciclovir treatment: Undifferentiated pluripotent stem cells (20000 cells/ μL) and dissociated neurospheres (100.000 cells/μL) were injected in the striatum of anesthetized mice using a 27-G Hamilton syringe. Injection coordinates for lateral striatum were: bregma=0.74 mm, mediolateral=2.25 mm, dorsoventral=3.5 mm; for medial striatum: bregma=0.74 mm, mediolateral=1.4 mm, dorsoventral=2.8 mm. […]

[8] = early treatment, one month after termination of treatment

Nc1nc(O)c2ncn(COC(CO)CO)c2n1 [ganciclovir]
time to killing of TK PSCs ([1]; 40 μM ganciclovir): ≤ 4 days | ganciclovir concentration at which loss of cells was almost complete ([1]; TK PSCs, 96 h exposure): 10 µM | ganciclovir concentration at which loss of cells was observed ([1]; TK PSCs, 96 h exposure): 2.5 µM | sensitivity of regular (control) PSCs to ganciclovir [2]: resistant; also recorded: no ganciclovir toxicity is observed | effect of ganciclovir on TK neurons [3]: not affected; also recorded: lose their sensitivity | effect of ganciclovir on control neurons [4]: not affected | time to complete killing of TK-NPCs ([5]; TK-NPCs after 1 week of neurosphere differentiation): 8 days | killing of TK-NPCs ([5]; TK-NPCs after 2 weeks of neurosphere differentiation): not killed | tumor development (graft surface) ([6]; early ganciclovir treatment): completely prevented | Ki67 and TK expression in the graft region [6, 8]: virtually no Ki67 and TK expression | human cells (HCM) remaining in the graft [6, 8]: hardly any human cells left; also recorded: barely detectable | teratoma formation ([6]; early treatment: 15 days, starting 4 days post-transplantation, daily i.p.): no observed teratomas; also recorded: absence of teratoma formation | tumor size (graft surface) ([6]; late ganciclovir treatment): did not have any effect | teratoma formation ([6]; late treatment: days 30-45 post-transplantation, sacrifice 30 days after end of treatment): teratoma formation; also recorded: no difference | size of transplants (graft surface) ([7]; NPC from 2-3 weeks old neurospheres, early ganciclovir treatment): not affected | proliferation marker pattern of transplants (PCNA positive, Ki67 low to absent) ([7]; ganciclovir vs control): did not alter this pattern | neural markers of transplanted cells (beta 3 tubulin, TH, nestin) ([7]; immunofluorescence 7 weeks after transplantation): None of these markers were affected | graft development, ganciclovir vs PBS ([7]; sacrifice 4 weeks after termination of treatment): No difference
